Laboratory results from EP3360891B1, “CELL PENETRATING PEPTIDES OF HUMAN ORIGIN” (Karlsruher Institut für Technologie, priority 2017, dated 2018).
Ends that are not written are not given here. Peptide text beside a SMILES is read from it. * marks the point of attachment. 5FAM = O=C1OC2(c3ccc(O)cc3Oc3cc(O)ccc32)c2ccc(C(=O)*)cc21

Key:
[1] = test system: HaCaT keratinocyte cell line; experiment: Cellular uptake into HaCaT keratinocytes, flow cytometry; type: cell-based, human; details: for cellular translocation: 25µM carboxyfluorescein labeled peptide, 1 h, 37°C, medium without FBS, mean of six measurements; for cell uptake in comparison to SSL-25: 1 h incubation at a concentration of 25µM
Description: Cells (20,000 cells per well) were seeded in 24-well plates and allowed to grow in standard growth medium containing Fetal Bovine Serum (FBS) overnight to attain a confluency of 70%. On the following day, the medium was discarded and cells were washed with phosphate buffered saline. Subsequently the peptide was added at a final concentration of 25µM in culture medium without FBS. The cells were incubated with the peptides labeled with carboxyfluorescein at the N-terminus at 37°C, 5% CO2 for 1 h in the dark. Following incubation of the cells with the peptides, the cells were washed three times with phosphate buffered saline. Subsequently, the cells were trypsinized using 0.25% Trypsin-EDTA for 10 min at 37°C, 5% CO2 to allow the protease dependent degradation of adsorbed surface bound peptides and to allow the detachment of cells from the 24-well plate for further analysis.
The cellular uptake of peptides was assessed by flow cytometry. 5000 events per sample were recorded and analyzed in the flow cytometer. A mean of six measurements was plotted with standard deviations being represented by error bars. […] These peptides translocate in HaCaT cells more efficiently as compared to SSL-25 (31%), SSL-9 E5A D9K (28%) and SSL-9 E5K D9K (22%).

[2] = Translocation into lipid vesicles (encapsulated chymotrypsin, Gly-Gln-Phe-Coumarin tag, method of Marks et al.); details: after 10 min, without Zn2+ ions, Figure 4B
From the text: Wimley, Spontaneous Membrane-Translocating Peptides by Orthogonal High-Throughput Screening, J Am Chem Soc, 133 (2011) 8995-9004].
In this method, the sequence Gly-Gln-Phe-Coumarin is C-terminally coupled to the peptides. Chymotrypsin is encapsulated in the vesicles, and this enzyme cuts the peptide between phenylalanine and coumarin. If accordingly labeled peptides penetrate into the vesicles, Chymotrypsin acts and cleaves the Phe-Coumarin bond which sets the coumarin free and causes a bathochromic shift of the fluorescence maximum of about 50 nm. which can be determined fluorimetrically.
Large unilamellar vesicles consisting of POPC / POPG 25:75 (mol:mol) were used in a concentration of 100 µM in buffer without or with 100 µM ZnSO4. […]

[3] = Cytotoxicity on HaCaT keratinocytes, MTT assay; details: human
Description: Said cells (7000 cells per well) were seeded in 96-well plate and were allowed to grow overnight in standard growth medium containing FBS. On the next day, the medium was discarded and the cells were washed thrice with phosphate buffered saline and incubated with the peptides at 10µM, 25µM, 50µM and 100µM in culture medium without FBS for 24 h at 37°C, 5% CO2. On the following day the cells were washed again with phosphate buffered saline. MTT reagent was added to cells at a final concentration of 1mg/ml in phosphate buffered saline and incubated for 2-4 h at 37°C, 5% CO2. Addition of MTT to the said cells yielded purple formazan crystals that were dissolved by addition of DMSO and the absorbance was measured at 570 nm.

[4] = test system: human erythrocytes; details: human erythrocytes 0.25 % hematocrit, 37 °C, 30 minutes, 2-fold dilutions from 1024 µM stock, relative to Triton X-100 lysis
Description: A concentrated solution of human erythrocytes was adjusted to a hematocrit of 0.5% by repeated washing with buffer solution (172 mM Tris-HCI, pH 7.6) and this diluted solution was equilibrated to 37 °C in a water bath.
The peptides were prepared as a 1024 µM stock solutions in buffer, added to the erythrocytes in sequential 2-fold dilutions and incubated at 37 °C for 30 minutes with occasional shaking.
The cells were centrifuged and the released hemoglobin in the supernatant was quantified using spectrophotometry. The obtained values were set in reference to the value obtained by complete lysis of all cells upon addition of Triton™ X-100.

Row | Molecule | cellular translocation [1] [%] | cell uptake in comparison to SSL-25 [1] | extent of translocation [2] | viability at 24 h, 100 µM [3] [%] | viability at 24 h, 100 µM ([3]; HaCaT keratinocytes) [%] | hemolysis [4]
1 | CC(C)C[C@H](NC(=O)CNC(=O)[C@H](CCCCN)NC(=O)[C@H](CCC(=O)O)NC(=O)[C@H](CC(C)C)NC(=O)[C@H](CC(C)C)NC(=O)[C@H](CO)NC(=O)[C@H](CO)NC(=O)c1ccc2c(c1)C(=O)OC21c2ccc(O)cc2Oc2cc(O)ccc21)C(=O)N[C@@H](CC(=O)O)C(=O)NCC(=O)N[C@@H](C)C(=O)N[C@@H](CCCCN)C(=O)N[C@@H](CCCCN)C(=O)O [SSL-13, SSLLEKGLDG AKK] (5FAM-SSLLEKGLDGAKK-OH) | 48 | higher cell uptake in comparison to SSL-25 | able to penetrate lipid membranes very efficiently | 70 | – | –
2 | CC(C)C[C@H](NC(=O)CNC(=O)[C@H](CCCCN)NC(=O)[C@H](CCC(=O)O)NC(=O)[C@H](CC(C)C)NC(=O)[C@H](CC(C)C)NC(=O)[C@H](CO)NC(=O)[C@H](CO)NC(=O)c1ccc2c(c1)C(=O)OC21c2ccc(O)cc2Oc2cc(O)ccc21)C(=O)N[C@@H](CC(=O)O)C(=O)O [SSL-9, SSLLEKGLD] (5FAM-SSLLEKGLD-OH; N-terminus and C-terminus assumed) | 50 | higher cell uptake in comparison to SSL-25 | reduced translocation | 70 | – | –
3 | CC(C)C[C@H](NC(=O)CNC(=O)[C@H](CCCCN)NC(=O)[C@H](C)NC(=O)[C@H](CC(C)C)NC(=O)[C@H](CC(C)C)NC(=O)[C@H](CO)NC(=O)[C@H](CO)NC(=O)c1ccc2c(c1)C(=O)OC21c2ccc(O)cc2Oc2cc(O)ccc21)C(=O)N[C@@H](CCCCN)C(=O)O [SSL-9 E5A D9K] (5FAM-SSLLAKGLK-OH; N-terminus and C-terminus assumed) | 28 | reduced but comparable uptake | – | – | 70 | –
4 | CC(C)C[C@H](NC(=O)CNC(=O)[C@H](CCCCN)NC(=O)[C@H](CCC(=O)O)NC(=O)[C@H](CC(C)C)NC(=O)[C@H](CC(C)C)NC(=O)[C@H](CO)NC(=O)[C@H](CO)NC(=O)c1ccc2c(c1)C(=O)OC21c2ccc(O)cc2Oc2cc(O)ccc21)C(=O)N[C@@H](CC(=O)O)C(=O)NCC(=O)N[C@@H](C)C(=O)O [SSL-11, SSLLEKGLDG A] (5FAM-SSLLEKGLDGA-OH; N-terminus and C-terminus assumed) | 70 | higher cell uptake in comparison to SSL-25 | reduced translocation | – | 70 | –
5 | CC(C)C[C@H](NC(=O)CNC(=O)[C@H](CCCCN)NC(=O)[C@H](CCCCN)NC(=O)[C@H](CC(C)C)NC(=O)[C@H](CC(C)C)NC(=O)[C@H](CO)NC(=O)[C@H](CO)NC(=O)c1ccc2c(c1)C(=O)OC21c2ccc(O)cc2Oc2cc(O)ccc21)C(=O)N[C@@H](C)C(=O)O [SSL-9 E5K D9A] (5FAM-SSLLKKGLA-OH; N-terminus and C-terminus assumed) | 81.7 | higher cell uptake in comparison to SSL-25 | – | 70 | – | –
6 | CC(C)C[C@H](NC(=O)CNC(=O)[C@H](CCCCN)NC(=O)[C@H](CCC(=O)O)NC(=O)[C@H](CC(C)C)NC(=O)[C@H](CC(C)C)NC(=O)[C@H](CO)NC(=O)[C@H](CO)NC(=O)c1ccc2c(c1)C(=O)OC21c2ccc(O)cc2Oc2cc(O)ccc21)C(=O)N[C@@H](C)C(=O)NCC(=O)N[C@@H](C)C(=O)N[C@@H](CCCCN)C(=O)N[C@@H](CCCCN)C(=O)O [SSL-13 D9A, SSLLEKGLAG AKK] (5FAM-SSLLEKGLAGAKK-OH; N-terminus and C-terminus assumed) | 81.5 | higher cell uptake in comparison to SSL-25 | – | – | 70 | –
7 | SSLLEKGLDGAKKAVGGLGKLGKDAVEDLESVGKGAVHDVKDVLDSVL [DCD-1L, SSLLEKGLDGAKKAVGGLGKLGKDAVEDLESVGKGAVHDVKDVLDSVL] | – | – | – | – | – | no hemolysis
8 | CC(C)C[C@H](NC(=O)CNC(=O)[C@H](CCCCN)NC(=O)[C@H](CCCCN)NC(=O)[C@H](CC(C)C)NC(=O)[C@H](CC(C)C)NC(=O)[C@H](CO)NC(=O)[C@H](CO)NC(=O)c1ccc2c(c1)C(=O)OC21c2ccc(O)cc2Oc2cc(O)ccc21)C(=O)N[C@@H](CCCCN)C(=O)O [SSL-9 E5K D9K] (5FAM-SSLLKKGLK-OH; N-terminus and C-terminus assumed) | 22 | reduced but comparable uptake | – | 70 | – | –
